Experimental data published in patent US10221178B2, “Purine inhibitors of human phosphatidylinositol 3-kinase delta” (MERCK SHARP & DOHME CORP., priority 2015, dated 2019).

Experiments:
[1] = target: PI3Kalpha (Homo sapiens (Human), UniProt P42336); assay: HTRF PI3K biochemical assay, alpha isoform (selectivity versus PI3Kalpha); settings: relative ratio (PI3K-alpha IC50 value/PI3K-delta IC50 value); form screened: Neutral
Summary of the method: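 Uses recombinant PI3Kalpha at 0.5 nM with 100 uM ATP and 5 uM PIP2, after a 15 min RT compound pre-incubation and a 1 h RT reaction. PIP3 product displaces biotin-PIP3 from GST-GRP1 PH domain, read as HTRF 665/620 ratio. IC50 from a 10-point dose response, corrected via a PIP3 standard curve.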

[2] = target: PI3Kdelta (Homo sapiens (Human), UniProt O00329); assay: HTRF PI3K biochemical assay, delta isoform; settings: 0.3 nM enzyme, 100 uM ATP, 5 uM PIP2, form screened: Neutral
PI3Kdelta, sequence (O00329 whole entry, canonical isoform): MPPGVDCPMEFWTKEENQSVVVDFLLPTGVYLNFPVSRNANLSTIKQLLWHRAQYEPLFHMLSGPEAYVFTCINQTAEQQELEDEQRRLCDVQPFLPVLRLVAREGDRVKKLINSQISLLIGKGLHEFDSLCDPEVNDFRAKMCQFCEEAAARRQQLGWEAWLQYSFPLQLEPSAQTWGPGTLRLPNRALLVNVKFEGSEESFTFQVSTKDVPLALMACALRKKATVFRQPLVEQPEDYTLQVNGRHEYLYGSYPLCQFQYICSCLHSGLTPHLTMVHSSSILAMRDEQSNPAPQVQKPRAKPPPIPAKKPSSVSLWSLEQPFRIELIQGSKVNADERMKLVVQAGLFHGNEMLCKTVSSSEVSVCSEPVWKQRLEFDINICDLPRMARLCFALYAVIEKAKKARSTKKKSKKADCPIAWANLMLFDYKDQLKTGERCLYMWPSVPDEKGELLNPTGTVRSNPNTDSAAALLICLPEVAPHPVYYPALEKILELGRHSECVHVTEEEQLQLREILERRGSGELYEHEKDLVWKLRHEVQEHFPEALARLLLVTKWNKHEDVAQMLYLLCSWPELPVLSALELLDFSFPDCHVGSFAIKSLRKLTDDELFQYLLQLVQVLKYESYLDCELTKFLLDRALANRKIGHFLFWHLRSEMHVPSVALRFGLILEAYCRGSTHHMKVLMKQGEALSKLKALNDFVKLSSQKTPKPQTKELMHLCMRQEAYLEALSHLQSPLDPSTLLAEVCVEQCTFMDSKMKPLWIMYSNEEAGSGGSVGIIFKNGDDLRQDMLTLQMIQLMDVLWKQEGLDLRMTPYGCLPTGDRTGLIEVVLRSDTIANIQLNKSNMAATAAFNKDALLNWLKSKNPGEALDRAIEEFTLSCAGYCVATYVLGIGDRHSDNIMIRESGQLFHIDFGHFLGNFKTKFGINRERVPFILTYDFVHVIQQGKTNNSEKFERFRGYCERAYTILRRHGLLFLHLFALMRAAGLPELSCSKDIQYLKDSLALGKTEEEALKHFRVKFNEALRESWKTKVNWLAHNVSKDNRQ
PI3Kdelta, sequence (P27986 whole entry partner, canonical isoform): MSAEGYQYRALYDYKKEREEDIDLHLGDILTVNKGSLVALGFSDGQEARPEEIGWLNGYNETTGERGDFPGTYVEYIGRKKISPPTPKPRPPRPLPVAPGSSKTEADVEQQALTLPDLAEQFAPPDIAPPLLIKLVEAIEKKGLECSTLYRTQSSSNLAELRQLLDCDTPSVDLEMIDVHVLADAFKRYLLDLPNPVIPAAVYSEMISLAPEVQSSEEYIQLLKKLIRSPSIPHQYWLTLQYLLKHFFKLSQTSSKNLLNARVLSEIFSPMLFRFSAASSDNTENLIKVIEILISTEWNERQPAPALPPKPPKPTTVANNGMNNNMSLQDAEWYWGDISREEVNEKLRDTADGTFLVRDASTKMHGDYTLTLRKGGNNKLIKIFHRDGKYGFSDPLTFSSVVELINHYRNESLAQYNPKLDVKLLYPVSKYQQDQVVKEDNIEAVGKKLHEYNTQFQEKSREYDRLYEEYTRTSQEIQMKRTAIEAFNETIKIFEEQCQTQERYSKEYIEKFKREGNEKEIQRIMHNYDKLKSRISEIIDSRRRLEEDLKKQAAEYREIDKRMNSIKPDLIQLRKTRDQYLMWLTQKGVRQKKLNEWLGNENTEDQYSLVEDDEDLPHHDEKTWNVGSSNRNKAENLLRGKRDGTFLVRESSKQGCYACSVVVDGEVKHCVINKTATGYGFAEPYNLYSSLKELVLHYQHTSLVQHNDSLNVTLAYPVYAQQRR
Summary of the method: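 0.3 nM PI3Kδ, pre-incubated 15 min at RT with compound (10-point 3-fold series), then reacted 1 h at RT with 100 uM ATP and 5 uM PIP2. After EDTA stop, PIP3 product detected by HTRF competition (GST-GRP1-PH, biotin-PIP3, Eu anti-GST, SA-APC), read 665/620 nm after 1 h.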

PI3Kalpha, sequence (P42336 whole entry, the tested form may be a part, canonical isoform): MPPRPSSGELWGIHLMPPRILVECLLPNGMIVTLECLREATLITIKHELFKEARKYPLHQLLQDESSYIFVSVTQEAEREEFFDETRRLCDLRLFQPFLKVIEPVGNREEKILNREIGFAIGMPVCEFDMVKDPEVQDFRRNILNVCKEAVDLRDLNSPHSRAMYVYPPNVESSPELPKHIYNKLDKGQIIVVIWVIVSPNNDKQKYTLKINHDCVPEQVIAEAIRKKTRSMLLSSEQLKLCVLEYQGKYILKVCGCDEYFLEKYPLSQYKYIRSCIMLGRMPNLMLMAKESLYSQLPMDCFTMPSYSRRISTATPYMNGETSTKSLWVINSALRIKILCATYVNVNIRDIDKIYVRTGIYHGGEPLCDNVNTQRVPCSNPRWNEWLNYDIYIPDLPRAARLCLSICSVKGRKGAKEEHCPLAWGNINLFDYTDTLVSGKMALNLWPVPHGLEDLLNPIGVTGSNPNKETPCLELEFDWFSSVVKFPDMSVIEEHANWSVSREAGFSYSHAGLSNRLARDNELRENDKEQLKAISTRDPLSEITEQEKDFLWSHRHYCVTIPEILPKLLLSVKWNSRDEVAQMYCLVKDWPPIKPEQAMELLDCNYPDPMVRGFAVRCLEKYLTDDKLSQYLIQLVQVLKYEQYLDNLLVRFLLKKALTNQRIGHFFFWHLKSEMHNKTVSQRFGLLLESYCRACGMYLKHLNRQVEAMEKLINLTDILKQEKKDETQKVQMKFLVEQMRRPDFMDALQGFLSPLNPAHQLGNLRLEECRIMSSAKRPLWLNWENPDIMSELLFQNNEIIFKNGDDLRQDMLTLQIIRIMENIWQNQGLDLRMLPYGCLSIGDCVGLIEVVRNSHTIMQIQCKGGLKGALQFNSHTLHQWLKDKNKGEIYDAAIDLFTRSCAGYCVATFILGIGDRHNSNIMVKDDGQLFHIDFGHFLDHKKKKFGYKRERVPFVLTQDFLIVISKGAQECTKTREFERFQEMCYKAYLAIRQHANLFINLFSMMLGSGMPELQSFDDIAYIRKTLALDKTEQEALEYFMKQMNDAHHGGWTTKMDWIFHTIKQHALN
PI3Kalpha, sequence (P27986 whole entry partner, the tested form may be a part, canonical isoform): as the sequence (P27986 whole entry partner, canonical isoform) above

SMILES: CC[C@H](Nc1ncnc2c1nc(-c1cnc(C)nc1)n2CC)C(=O)N1CCOCC1C(C)C (stereo partly drawn) [Compound 2-32, 9-ethyl-N-[(1S)-1-{[3-(1-methylethyl)morpholin-4-yl]carbonyl}propyl]-8-(2-methylpyrimidin-5-yl)-9H-purin-6-amine]
- Selectivity versus PI3Kalpha [1]: >10
- IC50 [2]: 83 nM

SMILES: CC[C@H](Nc1ncnc2c1nc(-c1cnc(C)nc1)n2CC)C(=O)N1CC(OC)C1 [Compound 2-17, 9-ethyl-N-{(1S)-1-[(3-methoxyazetidin-1-yl)carbonyl]propyl}-8-(2-methylpyrimidin-5-yl)-9H-purin-6-amine]
- Selectivity versus PI3Kalpha [1]: >10
- IC50 [2]: 74 nM

SMILES: CC[C@H](Nc1ncnc2c1nc(-c1cnc(C)nc1)n2CC)C(=O)N1CCOCC12CCC2 [Compound 2-27, 9-ethyl-8-(2-methylpyrimidin-5-yl)-N-[(1S)-1-(8-oxa-5-azaspiro[3.5]non-5-ylcarbonyl)propyl]-9H-purin-6-amine]
- Selectivity versus PI3Kalpha [1]: >10
- IC50 [2]: 11 nM

SMILES: CC[C@H](Nc1ncnc2c1nc(-c1cnc(C)nc1)n2CC)C(=O)N1CCC(C)C1 (mixture of isomers) [Compound 2-18, 9-ethyl-8-(2-methylpyrimidin-5-yl)-N-{(1S)-1-[((S and R)-3-methylpyrrolidin-1-yl)carbonyl]propyl}-9H-purin-6-amine]
- Selectivity versus PI3Kalpha [1]: >10
- IC50 [2]: 31 nM

SMILES: CC[C@H](Nc1ncnc2c1nc(-c1cnc(C)nc1)n2CC)C(=O)N1CCCC(F)(F)C1 [Compound 2-12, N-{(1S)-1-[(3,3-difluoropiperidin-1-yl)carbonyl]propyl}-9-ethyl-8-(2-methylpyrimidin-5-yl)-9H-purin-6-amine]
- Selectivity versus PI3Kalpha [1]: >10
- IC50 [2]: 11 nM

SMILES: CC[C@H](Nc1ncnc2c1nc(-c1cnc(C)nc1)n2CC)C(=O)N1C[C@@H]2C[C@H]1CO2 [Compound 2-31, 9-ethyl-8-(2-methylpyrimidin-5-yl)-N-{(1S)-1-[(1S,4S)-2-oxa-5-azabicyclo[2.2.1]hept-5-ylcarbonyl]propyl}-9H-purin-6-amine]
- Selectivity versus PI3Kalpha [1]: >10
- IC50 [2]: 37 nM

SMILES: CCn1c(-c2cnc(C)nc2)nc2c(N[C@H](C(=O)N3C[C@@H](C)O[C@@H](C)C3)C3CCCC3)ncnc21 [Compound 2-48, N-{(1S)-1-cyclopentyl-2-[(cis)-2,6-dimethylmorpholin-4-yl]-2-oxoethyl}-9-ethyl-8-(2-methylpyrimidin-5-yl)-9H-purin-6-amine]
- Selectivity versus PI3Kalpha [1]: >10
- IC50 [2]: 55 nM

SMILES: CCn1c(-c2cnc(C)nc2)nc2c(N[C@H](CC(=O)N3C[C@@H](C)O[C@@H](C)C3)C(C)C)ncnc21 [Compound 2-58, N-[(1R)-3-[(cis)-2,6-dimethylmorpholin-4-yl]-1-(1-methylethyl)-3-oxopropyl]-9-ethyl-8-(2-methylpyrimidin-5-yl)-9H-purin-6-amine]
- Selectivity versus PI3Kalpha [1]: >10
- IC50 [2]: 290 nM

SMILES: CCn1c(-c2cnc(C)nc2)nc2c(NCC3(C(=O)N4C[C@@H](C)O[C@@H](C)C4)CC3)ncnc21 [Compound 2-57, N-[(1-{[(cis)-2,6-dimethylmorpholin-4-yl]carbonyl}cyclopropyl)methyl]-9-ethyl-8-(2-methylpyrimidin-5-yl)-9H-purin-6-amine]
- Selectivity versus PI3Kalpha [1]: >10
- IC50 [2]: 24 nM

SMILES: CCn1c(-c2cnc(C)nc2)nc2c(N[C@H](C(=O)N3C[C@@H](C)O[C@@H](C)C3)C3CC3)ncnc21 [Compound 2-40, N-{(1S)-1-cyclopropyl-2-[(cis)-2,6-dimethylmorpholin-4-yl]-2-oxoethyl}-9-ethyl-8-(2-methylpyrimidin-5-yl)-9H-purin-6-amine]
- Selectivity versus PI3Kalpha [1]: >10
- IC50 [2]: 4.1 nM

SMILES: CC[C@H](Nc1ncnc2c1nc(-c1cnc(C)nc1)n2CC)C(=O)N1CCOCC1CO (mixture of isomers) [Compound 2-37, {4-[(2S)-2-{[9-ethyl-8-(2-methylpyrimidin-5-yl)-9H-purin-6-yl]amino}butanoyl]-(R and S)-morpholin-3-yl}methanol]
- Selectivity versus PI3Kalpha [1]: >10
- IC50 [2]: 64 nM

SMILES: CCC(Nc1ncnc2c1nc(-c1cnc(C)nc1)n2CC)C(=O)N1CCc2c(c(C(C)C)nn2C)C1 (single isomer, unassigned) [Compound 5-2, (S or R)-9-ethyl-N-(1-{[1-methyl-3-(1-methylethyl)-1,4,6,7-tetrahydro-5H-pyrazolo[4,3-c]pyridin-5-yl]carbonyl}propyl)-8-(2-methylpyrimidin-5-yl)-9H-purin-6-amine]
- Selectivity versus PI3Kalpha [1]: >10
- IC50 [2]: 39 nM

SMILES: CCn1c(-c2cnc(C)nc2)nc2c(N[C@@H](CN(C)C)C(=O)N3C[C@@H](C)O[C@@H](C)C3)ncnc21 [Compound 2-51, (2S)-3-[(cis)-2,6-dimethylmorpholin-4-yl]-N-2-[9-ethyl-8-(2-methylpyrimidin-5-yl)-9H-purin-6-yl]-N-1-,N-1-dimethyl-3-oxopropane-1,2-diamine]
- Selectivity versus PI3Kalpha [1]: >10
- IC50 [2]: 420 nM

SMILES: CC[C@H](Nc1ncnc2c1nc(-c1cnc(C)nc1)n2CC)C(=O)N1CCS(=O)(=O)CC1 [Compound 2-8, N-{(1S)-1-[(1,1-dioxidothiomorpholin-4-yl)carbonyl]propyl}-9-ethyl-8-(2-methylpyrimidin-5-yl)-9H-purin-6-amine]
- Selectivity versus PI3Kalpha [1]: >10
- IC50 [2]: 31 nM

SMILES: CCn1ncc(-c2nc3c(NC(C)C(=O)N4CCOCC4)ncnc3n2C)c1C (single isomer, unassigned) [Compound 1-7, (R or S)-8-(1-ethyl-5-methyl-1H-pyrazol-4-yl)-9-methyl-N-(1-methyl-2-morpholin-4-yl-2-oxoethyl)-9H-purin-6-amine]
- Selectivity versus PI3Kalpha [1]: >10
- IC50 [2]: 24 nM

SMILES: CC[C@H](Nc1ncnc2c1nc(-c1cnc(C)nc1)n2CC)C(=O)N1CCOC(C)(C)C1 [Compound 2-33, N-{(1S)-1-[(2,2-dimethylmorpholin-4-yl)carbonyl]propyl}-9-ethyl-8-(2-methylpyrimidin-5-yl)-9H-purin-6-amine]
- Selectivity versus PI3Kalpha [1]: >10
- IC50 [2]: 9.8 nM

SMILES: CC[C@H](Nc1ncnc2c1nc(-c1cnc(C)nc1)n2CC)C(=O)N1CCC(C#N)CC1 [Compound 2-13, 1-[(2S)-2-{[9-ethyl-8-(2-methylpyrimidin-5-yl)-9H-purin-6-yl]amino}butanoyl]piperidine-4-carbonitrile]
- Selectivity versus PI3Kalpha [1]: >10
- IC50 [2]: 26 nM

SMILES: CC[C@H](Nc1ncnc2c1nc(C(F)F)n2CC)C(=O)N1C[C@@H](C)O[C@@H](C)C1 [Compound 2-4, 8-(difluoromethyl)-N-[(1S)-1-{[(cis)-2,6-dimethylmorpholin-4-yl]carbonyl}propyl]-9-ethyl-9H-purin-6-amine]
- Selectivity versus PI3Kalpha [1]: >10
- IC50 [2]: 99 nM

SMILES: CCn1ncc(-c2nc3c(N[C@H](Cc4ccccc4)C(=O)N4CCOCC4)ncnc3n2C)c1C [Compound 2-1, N-[(1R)-1-benzyl-2-morpholin-4-yl-2-oxoethyl]-8-(1-ethyl-5-methyl-1H-pyrazol-4-yl)-9-methyl-9H-purin-6-amine]
- Selectivity versus PI3Kalpha [1]: >10
- IC50 [2]: 15 nM

SMILES: CCn1c(-c2cnc(C)nc2)nc2c(N[C@H](C(=O)N3C[C@@H](C)O[C@@H](C)C3)C(C)(C)O)ncnc21 [Compound 2-50, (3S)-4-[(cis)-2,6-dimethylmorpholin-4-yl]-3-{[9-ethyl-8-(2-methylpyrimidin-5-yl)-9H-purin-6-yl]amino}-2-methyl-4-oxobutan-2-ol]
- Selectivity versus PI3Kalpha [1]: >10
- IC50 [2]: 8.7 nM

SMILES: CCC(Nc1ncnc2c1nc(-c1cnc(C)nc1)n2CC)C(=O)N1CC(O)(C2CC2)C1 (single isomer, unassigned) [Compound 4-1, (S or R)-3-cyclopropyl-1-(2-{[9-ethyl-8-(2-methylpyrimidin-5-yl)-9H-purin-6-yl]amino}butanoyl)azetidin-3-ol]
- Selectivity versus PI3Kalpha [1]: >10
- IC50 [2]: 30 nM

SMILES: CCn1c(-c2cnc(C)nc2)nc2c(N[C@@H](CO)C(=O)N3C[C@@H](C)O[C@@H](C)C3)ncnc21 [Compound 2-47, (2S)-3-[(cis)-2,6-dimethylmorpholin-4-yl]-2-{[9-ethyl-8-(2-methylpyrimidin-5-yl)-9H-purin-6-yl]amino}-3-oxopropan-1-ol]
- Selectivity versus PI3Kalpha [1]: >10
- IC50 [2]: 12 nM

SMILES: CCn1c(-c2cnc(C)nc2)nc2c(N[C@@H](C)CC(=O)N3CCCC3)ncnc21 [Compound 2-59, 9-ethyl-N-[(1S)-1-methyl-3-oxo-3-pyrrolidin-1-ylpropyl]-8-(2-methylpyrimidin-5-yl)-9H-purin-6-amine]
- Selectivity versus PI3Kalpha [1]: >10
- IC50 [2]: 63 nM
